Laboratory results from patent US11731943B2, “Therapeutic compounds, compositions and methods of use thereof” (priority 2016, dated 2023).
Where two headings read alike, the source gives them in different places.

Key:
[1] = tested on: JAK1-dependent STAT6 phosphorylation downstream of IL-13 stimulation in BEAS-2B human bronchial epithelial cells; assay: JAK1 pathway assay in BEAS-2B cells (IL-13-pSTAT6, MSD); format: cell-based; settings: BEAS-2B cells, IL-13 stimulation, read-out: IL-13 p-STAT6 BEAS-2B IC50
Description: JAK1 Pathway Assay in Cell Lines was carried out as follows:
Inhibitor potency (EC50) was determined in cell-based assays designed to measure JAK1 dependent STAT phosphorylation.
In one assay approach, TF-1 human erythroleukemia cells obtained from the American Type Culture Collection (ATCC; Manassas, Va.) were used to measure JAK1-dependent STAT6 phosphorylation downstream of IL-13 stimulation. Prior to use in the assays, TF-1 cells were starved of GM-CSF overnight in OptiMEM medium (Life Technologies, Grand Island, N.Y.) supplemented with 0.5% charcoal/dextran stripped fetal bovine serum (FBS), 0.1 mM non-essential amino acids (NEAA), and 1 mM sodium pyruvate. The assays were run in 384-well plates in serum-free OptiMEM medium using 300,000 cells per well. In a second assay approach, BEAS-2B human bronchial epithelial cells obtained from ATCC were plated at 100,000 cells per well of a 96-well plate one day prior to the experiment. The BEAS-2B assay was run in complete growth medium (bronchial epithelial basal medium plus bulletkit; Lonza; Basel, Switzerland).
Test compounds were serially diluted 1:2 in DMSO and then diluted 1:50 in medium just before use. Diluted compounds were added to the cells, for a final DMSO concentration of 0.2%, and incubated for 30 min (for the TF-1 assay) or 1 hr (for the BEAS-2B assay) at 37° C. Then, cells were stimulated with human recombinant cytokine at their respective EC90 concentrations, as previously determined for each individual lot. Cells were stimulated with IL-13 (R&D Systems, Minneapolis, Minn.) for 15 min at 37° C. The TF-1 cell reactions were stopped by the direct addition of 10× lysis buffer (Cell Signaling Technologies, Danvers, Mass.), whereas the BEAS-2B cell incubations were halted by the removal of medium and addition of 1× lysis buffer. The resultant samples were frozen in the plates at −80° C. Compound mediated inhibition of STATE phosphorylation was measured in the cell lysates using MesoScale Discovery (MSD) technology (Gaithersburg, Md.).

[2] = target: isolated recombinant JAK2 kinase domain (Homo sapiens (Human), UniProt O60674); assay: JAK2 enzyme assay (Caliper LabChip, Ki); format: biochemical
Sequence of isolated recombinant JAK2 kinase domain (O60674 849-1124): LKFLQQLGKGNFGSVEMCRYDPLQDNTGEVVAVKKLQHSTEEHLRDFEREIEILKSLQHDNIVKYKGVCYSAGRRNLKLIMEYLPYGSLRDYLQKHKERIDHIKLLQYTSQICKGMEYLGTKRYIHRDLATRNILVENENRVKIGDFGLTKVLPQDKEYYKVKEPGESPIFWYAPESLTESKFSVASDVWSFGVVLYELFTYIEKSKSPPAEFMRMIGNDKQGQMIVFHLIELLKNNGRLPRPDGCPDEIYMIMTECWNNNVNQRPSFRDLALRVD
Method in brief: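 Recombinant human JAK1 or JAK2 kinase domain phosphorylating a 5-carboxyfluorescein-labelled JAK3-derived peptide; 30 min at 22 °C, stopped with EDTA (50 mM final). Phosphorylated product measured as a fraction of total peptide by Caliper LabChip mobility shift.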

[3] = target: isolated recombinant JAK1 kinase domain (Homo sapiens (Human), UniProt P23458); assay: JAK1 enzyme assay (Caliper LabChip, Ki); format: biochemical; settings: read-out: JAK1 Ki
Sequence of isolated recombinant JAK1 kinase domain (P23458 875-1153): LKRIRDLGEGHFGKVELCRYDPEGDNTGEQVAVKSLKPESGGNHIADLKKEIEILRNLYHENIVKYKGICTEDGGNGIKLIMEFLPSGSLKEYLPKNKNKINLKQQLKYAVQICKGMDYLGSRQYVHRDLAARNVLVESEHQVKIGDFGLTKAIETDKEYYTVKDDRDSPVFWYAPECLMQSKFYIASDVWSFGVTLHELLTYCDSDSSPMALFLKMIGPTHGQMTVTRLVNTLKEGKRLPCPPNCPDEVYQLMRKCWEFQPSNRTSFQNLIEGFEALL
Method in brief: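 Recombinant human JAK1 kinase domain phosphorylating an N-terminally 5-carboxyfluorescein-labelled JAK3-derived peptide, 30 min at 22 °C, stopped with EDTA (50 mM final). Phosphorylated fraction of total peptide read by Caliper LabChip mobility shift; Ki from Morrison tight-binding fit corrected for ATP competition (Ki=Ki,app/(1+[ATP]/Km,app)).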

| SMILES | IC50 ([1]; Homo sapiens, BEAS-2B) | Ki [2] | Ki [3] | IC50 [1] |
| --- | --- | --- | --- | --- |
| N#CC[C@]1(n2cc(C(N)=O)c(NC(=O)C3CC3)n2)CCN(Cc2ccc(-c3ccccc3)cc2)C[C@@H]1F (single isomer, unassigned) [Example 12] | 103 nM | 6.8 nM | 1.3 nM | – |
| N#CC[C@@]1(n2cc(C(N)=O)c(NC(=O)C3CC3)n2)CCN(Cc2ccc(-c3ccccc3)cc2)C[C@@H]1F (single isomer, unassigned) [Example 13] | 37 nM | 2.2 nM | 0.6 nM | – |
| N#CC[C@]1(n2cc(C(N)=O)c(NC(=O)C3CC3)n2)CCN(Cc2ccc(-c3ccccc3)cc2)C[C@H]1F (single isomer, unassigned) [Example 14] | 16 nM | 0.4 nM | 0.2 nM | – |
| N#CC[C@@]1(n2cc(C(N)=O)c(NC(=O)C3CC3)n2)CCN(Cc2ccc(-c3ccccc3)cc2)C[C@H]1F (single isomer, unassigned) [Example 15] | 282 nM | 30.7 nM | 4.2 nM | – |
| N#CCC1(n2cc(C(N)=O)c(NC(=O)C3CC3)n2)CCC(Oc2ccc(-c3ccccc3)cc2)CC1 (single isomer, unassigned) [Example 210, 1-(4-([1,1′-Biphenyl]-4-yloxy)-1-(cyanomethyl)cyclohexyl)-3-(cyclopropanecarboxamido)-1H-pyrazole-4-carboxamide] | – | 5.1 nM | 2.1 nM | 75 nM |
| N#CCC1(n2cc(C(N)=O)c(NC(=O)C3CC3)n2)CCC(Oc2ccc(-c3ccccc3)cc2)CC1 (single isomer, unassigned) [Example 211, 1-(4-([1,1′-Biphenyl]-4-yloxy)-1-(cyanomethyl)cyclohexyl)-3-(cyclopropanecarboxamido)-1H-pyrazole-4-carboxamide] | – | 4.6 nM | 0.74 nM | 26 nM |
| N#CCC1(n2cc(C(N)=O)c(NC(=O)C3CC3)n2)CCN(Cc2ccc(-c3ccccc3)cc2)CC1 [Example 6, 1-(1-([1,1′-Biphenyl]-4-ylmethyl)-4-(cyanomethyl)piperidin-4-yl)-3-(cyclopropanecarboxamido)-1H-pyrazole-4-carboxamide] | 31 nM | 3.6 nM | 0.8 nM | – |
| N#CCC1(n2cc(C(N)=O)c(NC(=O)C3CC3)n2)CCN(Cc2ccc(-c3ccccc3)c(O)c2)CC1 [Example 11, 1-(4-(Cyanomethyl)-1-((2-hydroxy-[1,1′-biphenyl]-4-yl)methyl)piperidin-4-yl)-3-(cyclopropanecarboxamido)-1H-pyrazole-4-carboxamide] | 383 nM | 1 nM | 0.4 nM | – |
| N#CCC1(n2cc(C(N)=O)c(NC(=O)C3CC3)n2)CCN(Cc2ccc(-c3csc(Cl)c3)nc2)CC1 [Example 16, 1-(1-((6-(5-Chlorothiophen-3-yl)pyridin-3-yl)methyl)-4-(cyanomethyl)piperidin-4-yl)-3-(cyclopropanecarboxamido)-1H-pyrazole-4-carboxamide] | 85 nM | 2.4 nM | 0.5 nM | – |
| N#CCC1(n2cc(C(N)=O)c(NC(=O)C3CC3)n2)CCN(C(=O)OCC2CC2)CC1 [Example 17, Cyclopropylmethyl 4-(4-carbamoyl-3-(cyclopropanecarboxamido)-1H-pyrazol-1-yl)4-(cyanomethyl) piperidine-1-carboxylate] | 948 nM | 69.4 nM | 4 nM | – |
| N#CCC1(n2cc(C(N)=O)c(NC(=O)C3CC3)n2)CCN(C(=O)NC2CC(F)(F)C2)CC1 [Example 21, 4-(4-Carbamoyl-3-(cyclopropanecarboxamido)-1H-pyrazol-1-yl)-4-(cyanomethyl)-N-(3,3-difluorocyclobutyl) piperidine-1-carboxamide] | > 1000 nM | 48.4 nM | 2.3 nM | – |
| N#CCC1(n2cc(C(N)=O)c(NC(=O)C3CC3)n2)CCN(CC(F)(F)F)CC1 [Example 23] | 250 nM | 19.4 nM | 4.5 nM | – |
| CS(=O)(=O)Nc1cccc(CN2CCC(CC#N)(n3cc(C(N)=O)c(NC(=O)C4CC4)n3)CC2)c1 [Example 45] | > 1000 nM | 8.5 nM | 1.9 nM | – |
| N#CCC1(n2cc(C(N)=O)c(NC(=O)C3CC3)n2)CCN(Cc2ccc(Br)cc2)CC1 [Example 52] | 102 nM | 20.9 nM | 2.3 nM | – |
| N#CCC1(n2cc(C(N)=O)c(NC(=O)C3CC3)n2)CCN(Cc2ccc(I)cc2)CC1 [Example 55] | 98 nM | 31.4 nM | 3.2 nM | – |
| N#CCC1(n2cc(C(N)=O)c(NC(=O)C3CC3)n2)CCN(Cc2cccc(F)c2)CC1 [Example 56] | 363 nM | 24.3 nM | 2.4 nM | – |
| N#CCC1(n2cc(C(N)=O)c(NC(=O)C3CC3)n2)CCN(Cc2ccc(F)cc2)CC1 [Example 57] | 128 nM | 49 nM | 3.9 nM | – |
